Reference: US20250127777A1, “DUAL INHIBITION OF MDM2 AND EIF2-ALPHA INDUCES CELL DEATH IN MULTIPLE CANCER CELL TYPES” (The Regents of the University of Colorado, A Body Corporate, priority 2022, published 2025)

What was measured:
cell viability = assay: Cell viability after single-agent treatment; type: cell-based
p53 = assay: Western blot of p53 in thyroid carcinoma cells; type: cell-based; settings: TPC1 and K1 cells; 10 μM nutlin-3a, 25 μM GSK2830371; 24 hours
Method: (§1) Following a brief sonication (2.5W, 5 sec) and heat denaturation (90° C., 5 min), total protein concentration in whole cell lysates was measured by a BCA Protein Assay Kit (Pierce, Thermo Fisher Scientific). 20 μg of protein per sample was resolved by SDS-PAGE and transferred onto a 0.45 μm PVDF membrane (0.2 μm for ATF3 detection). Membranes were incubated in blocking buffer (5% fat-free milk in wash buffer—20 mM Tris pH 7.6, 150 mM NaCl, 0.2% Tween 20) for an hour at RT and o/n at 4° C. with the primary antibody diluted in a fresh blocking buffer. Next day membranes were washed three times for 10 min in the wash buffer, incubated with HRP-conjugated secondary antibody for an hour at RT, and washed again three times in the wash buffer. SuperSignal West Pico Plus Chemiluminescence Substrate (Pierce) was used for detection and digital images were acquired using an ImageQuant LAS 4000 (GE Healthcare Life Sciences).

TPC1 and HCT116 = assay: Polysome profiling (polysome/monosome ratio); type: cell-based; settings: 24 hours
Method: TPC1 and HCT116 were plated at 6*104/cm2 on 143 cm2 dishes, cultivated o/n, and treated accordingly. Ten minutes before the harvest cultivation media was supplemented with cycloheximide (CHX) at final concentration of 100 μg/ml. Next, cells were washed twice with ice-cold PBS with 100 μg/ml CHX and lysed in polysome preparation lysis buffer (20 mM HEPES pH 7.4, 15 mM MgCl2, 200 mM NaCl, 1% Triton X-100, 100 μg/ml CHX, 2 mM DTT, and 100U SuperaseIN). Lysates were cleared of debris by centrifugation at 20,000g, 4° C. for 10 minutes. Total nucleic acid content in lysates was measured by absorbance at 260 nm and used for sample concentration normalization. Next, 500 μl of the lysate was loaded on 10-60% sucrose gradients in SW41 tubes in lysis buffer lacking Triton X-100. These gradients were prepared using a BioComp system and chilled to 4° C. before use. Samples were ultracentrifuged at 36,000 rpm for 3 hours and 10 min, at 4° C., then samples were fractionated using a BioComp system, monitoring absorbance at 260 nm while collecting fractions of approximately 0.4 ml each.

PPM1D = assay: Western blot of PPM1D expression; type: cell-based; settings: 25 μM GSK2830371; 24 hours
Method: as §1, with “Protein samples were prepared with cells washed twice with PBS and lysed in modified Laemmli buffer (Laemmli, 1970) (1% w/v SDS, 10% w/v glycerol, 100 mM Tris pH 7.2, protease (complete Mini, Roche) and phosphatase (PhosSTOP, Roche) inhibitors). Following” for “Following”

K1 cells [1] = assay: RNA-seq transcriptome analysis (DESeq2); type: cell-based, Human; settings: for differentially expressed mRNAs versus vehicle: nutlin 10 μM, GSK2830371 25 μM, or both, 24 hours
Method: (§2) TPC1 and K1 cells were plated at 2*104/cm2 and treated for 24 hours as indicated. Following the treatment period, cells were washed with ice-cold PBS and lysed in TRI Reagent (Millipore Sigma). Quality of the extracted RNA was assessed by Agilent Bioanalyzer 2100 using RNA 6000 Pico chips (Agilent). Single-end 150 bp sequencing of the poly-A (+)-enriched RNA was carried out on the Illumina HiSeq 4000 platform by the Genomics Core facility at the University of Colorado Anschutz.
(§3) Quality of the sequencing data was analyzed using FASTQC (version 0.11.2, available at the website www.bioinformatics.babraham.ac.uk/projects/fastqc and presence of common sequencing contaminants was assessed by FastQ Screen (v0.4.4) available at the website www.bioinformatics.babraham.ac.uk/projects/fastq_screen/. Bases with low quality (Q<10) were 3′ end trimmed and reads shorter than 30 nt were discarded using the Fastx toolkit (v0.0.13.2). Reads were aligned to a GRCh37/hg19 Human reference using TopHat2 (v2.0.13,-b2-sensitive-keep-fasta-order-no-coverage-search-max-multihits 10-library-type fr-firststrand) (Kim et al., 2013) with the UCSC hg19 GTF annotation file provided in the iGenomes UCSC hg19 bundle available at the website: support.illumina.com/sequencing/sequencing_software/igenome.html. Aligned reads with MAPQ<10 quality were removed using SAMtools (v0.1.19). Alignments were then sorted by coordinates, and duplicates were identified using Picard (v1.129). Quality assessment of final mapped reads was conducted using RSeQC (v2.6) (Wang et al., 2012). Gene-level counts were obtained using HTSeq (v0.6.1) (Anders et al., 2015) with the following options (-stranded=reverse -minaqual=10-type=exon-idattr=gene_id_mode=intersection-nonempty) using the iGenomes UCSC hg19 GTF annotation file. Differential gene expression was evaluated using DESeq2 (version 1.6.3) (Love et al., 2014) in R (version 3.1.0), using q<0.05 (FDR<5%) and fold-change>1.5 (Up) or <1/1.5 (Down) as cutoffs for differentially expressed genes. Genome browser snapshots were generated from bedGraph or tgv files using IGV genome viewer (v2.8.10) (Thorvaldsdottir et al., 2013).

TPC1 cells [2] = assay: RNA-seq transcriptome analysis (DESeq2); type: cell-based, Human; settings: for differentially expressed mRNAs versus vehicle: nutlin 10 μM, GSK2830371 25 μM, or both, 24 hours
Method: as §2, §3

K1 cells [3] = assay: Annexin V-FITC/PI apoptosis assay by flow cytometry; type: cell-based; settings: 10 μM nutlin-3a, 25 μM GSK2830371, or both, 72 hours
Method: (§4) TPC1, K1, HCT116, MCF7, SJSA, and HEK293FT cells were cultivated in RPMI (TPC1, SJSA), DMEM (K1, MCF7, HEK293FT), and McCoy's (HCT116) media (Gibco, Thermo Fisher Scientific) supplemented with 10% fetal bovine serum (Peak Serum) and 1% antibiotic-antimycotic mixture (Gibco). Cells were plated a day before the treatment and maintained in a humidified atmosphere with 5% of CO2 at 37° C. Both TPC1 and K1 lines were gifts from Dr. Rebecca Schweppe, University of Colorado Anschutz Medical Campus (CU-AMC). Cell line identity has been verified by short tandem repeats profiling at the Cell Technologies Shared Resource, CU-AMC. Colorectal cancer organoid cultures (CRC172) were obtained from the Enteroid Stem Cell Core facility at CU-AMC.
(§5) The fraction of apoptotic cells was determined by Annexin V-FITC/PI assay. Briefly, cells harvested by trypsinization were resuspended in Annexin-V binding buffer (10 mM HEPES pH 7.4, 140 mM NaCl, 2.5 mM CaCl2)). Approximately 2*10^5 cells were labeled with Annexin-V-FITC (Invitrogen) and PI (10 μg/ml, Millipore-Sigma) for 15 minutes in the dark before flow cytometric analysis (Accuri C6, Becton Dickinson). To analyze mitochondrial membrane potential (44m) cells were trypsinized and resuspended in cultivation media. An aliquot of approximately 5*10^5 cells per sample was mixed with tetramethylrhodamine, ethyl ester, perchlorate (TMRE, Thermo Fisher, 100 nM final concentration) solution, incubated for 10 minutes in the dark, and analyzed by flow cytometer.

TPC1 cells [4] = assay: as above; type: cell-based; settings: 10 μM nutlin-3a, 25 μM GSK2830371, or both, 72 hours
Method: as §4, §5

ATF3 and ATF4 gene loci = assay: GRO-seq transcriptional activity at ATF3 and ATF4 gene loci; type: cell-based; settings: 60 minutes of nutlin treatment (10 μM); three different cell lines
ATF3 and ATF4 mRNA = ATF3 and ATF4 mRNA induction (RNA-seq, Q-RT-PCR); type: cell-based, Human; settings: TPC1, K1, and four other cell lines; 24 hours
Source text: (§6) After indicated treatments, cells were washed with PBS, total RNA was extracted using Trizol substitute (38% Phenol, saturated, pH 4.3, 0.8 M guanidine thiocyanate, 0.4 M ammonium thiocyanate, 0.1 M sodium acetate, pH 5.0, 5% glycerol), and converted to cDNA with High-Capacity cDNA Reverse Transcription Kit (Thermo Fisher). Next, diluted cDNA was used in quantitative PCR reaction using SYBR Select Master Mix for CFX (Thermo Fisher). Detected mRNA levels were normalized to 18s rRNA values.
as §2, with “Anschutz. […]” for “Anschutz.”

diverse cell types = assay: Annexin V-FITC/PI apoptosis assay, elF2α plus MDM2 inhibition; type: cell-based
Method: as §4
as §5, with “To analyze mitochondrial membrane potential (44m) cells were trypsinized and resuspended in cultivation media.” left out

HCT116 xenograft tumors = assay: HCT116 xenograft tumor model; type: in vivo; settings: nude mice, 200 mg/kg nelfinavir and/or 200 mg/kg milademetan
Method: Athymic nude mice (NU/NU) weighting 20 to 30 grams and being 8-12 weeks of age (Charles River Labs) were housed in cages under standard conditions (22° C., 50% relative humidity, 12-h light/dark cycles) and provided with food and water ad libitum. Next, […] exponentially growing HCT116 cells resuspended in 100 μl Matrigel/PBS (5 mg/ml final) were injected subcutaneously into both flanks. Tumors grew for 10-14 days before treatment initiation. Experimental animals were given 200 mg/kg nelfinavir and/or 200 mg/kg Milademetan (Rain Therapeutics) by oral gavage once daily, 5 days a week. Tested compounds were prepared in a mixture of 2% Klucel (hydroxypropyl cellulose), 0.5% Tween 80, and 35% ethanol. Tumor volumes (v) were estimated daily, 5 days a week using caliper measurements and formula v=(I×w^2)/2, where I represents the greatest length of the tumor and w is tumor width in the perpendicular axis. Average volumes of the right and left flank tumors were used for plotting and calculations. Equal ratios of male and female mice were used in treatment groups (5 males and 5 females). All in vivo experiments were approved by the Institutional Animal Care and Use Committee at the CU-AMC (IACUC protocol 00432).
as §6
Tumors fixed in 4% formaldehyde were transferred to 70% ethanol and embedded in paraffin at the Pathology Shared Resource-Research Histology, University of Colorado Anschutz Medical Campus. Three tumors from each experimental group were sectioned, stained with DAPI and Ki67 primary antibody using Akoya Opal technology (Akoya Biosciences), and scanned at six representative regions with Vectra 3.0 (Akoya Biosciences) at the Human Immune Monitoring Shared Resource (University of Colorado Anschutz). Next, InForm image analysis software (Akoya Biosciences) was used for automated identification of nuclei based on the DAPI signal. Ki67 nuclear fluorescence was outputted for all nuclei.

[5] = FDR<5%, adjusted fold change>1.5

## COc1cc(C(=O)O)ccc1NC(=O)[C@@H]1N[C@@H](CC(C)(C)C)[C@](C#N)(c2ccc(Cl)cc2F)[C@H]1c1cccc(Cl)c1F [idasanutlin]
Cell viability
  effects on cell viability when administered alone: limited effects on cell viability

## Cc1ncc(Cl)cc1NCc1ccc(C(=O)N[C@@H](CC2CCCC2)C(=O)NC2CC2)s1 [GSK2830371]
p53
  p53 stabilization: does not stabilize p53
Cell viability
  effects on cell viability when administered alone: limited effects on cell viability
TPC1 and HCT116
  polysome/monosome ratio: decreases in the polysome/monosome ratio
PPM1D
  PPM1D expression: reduces PPM1D expression
K1 cells [1]
  differentially expressed mRNAs versus vehicle: had little impact on the transcriptome
TPC1 cells [2]
  differentially expressed mRNAs versus vehicle: had little impact on the transcriptome
K1 cells [3]
  apoptosis (Annexin V-FITC/PI): does not stabilize p53 or induce apoptosis
TPC1 cells [4]
  apoptosis (Annexin V-FITC/PI): does not stabilize p53 or induce apoptosis

## COc1ccc(C2=N[C@@H](c3ccc(Cl)cc3)[C@@H](c3ccc(Cl)cc3)N2C(=O)N2CCNC(=O)C2)c(OC(C)C)c1 [nutlin-3a]
p53
  p53 stabilization: stabilizes p53
ATF3 and ATF4 gene loci
  transactivation of ATF3 (GRO-seq): rapid transactivation of ATF3
  transactivation of ATF4 (GRO-seq): not ATF4
Cell viability
  effects on cell viability when administered alone: limited effects on cell viability
ATF3 and ATF4 mRNA
  ATF3 induction at the mRNA level: clear induction of ATF3
  ATF4 induction at the mRNA level: not ATF4
TPC1 and HCT116
  polysome/monosome ratio: decreases in the polysome/monosome ratio
K1 cells [1]; [5]
  genes induced by both nutlin and nutlin+GSK2830371: 367 genes
K1 cells [1]
  differentially expressed mRNAs versus vehicle: hundreds of mRNAs significantly upregulated or downregulated
TPC1 cells [2]; [5]
  genes induced by both nutlin and nutlin+GSK2830371: 1924 genes
TPC1 cells [2]
  differentially expressed mRNAs versus vehicle: hundreds of mRNAs significantly upregulated or downregulated
K1 cells [3]
  apoptosis (Annexin V-FITC/PI): does not cause p53-dependent apoptosis
TPC1 cells [4]
  apoptosis (Annexin V-FITC/PI): does not cause p53-dependent apoptosis

## COc1ncc(-c2nc3c(n2C(C)C)[C@H](c2ccc(Cl)cc2)N(c2cc(Cl)cn(C)c2=O)C3=O)c(OC)n1 [siremadlin/HDM201, siremadlin]
Cell viability
  effects on cell viability when administered alone: limited effects on cell viability

## O=C(/C=C/c1ccccc1)NC(NC(=S)Nc1ccc(Cl)cc1)C(Cl)(Cl)Cl (stereo not drawn) [sal003]
Diverse cell types
  synergy with small molecule inhibitors of MDM2 to elicit p53-dependent cell death: synergize with small molecule inhibitors of MDM2 to elicit p53-dependent cell death

## CC1(C)CCC2(CC1)N[C@@H](C(=O)N[C@@H]1CC[C@@H](C(N)=O)OC1)[C@H](c1ccnc(Cl)c1F)[C@]21C(=O)Nc2cc(Cl)ccc21 [milademetan]
Cell viability
  effects on cell viability when administered alone: limited effects on cell viability
HCT116 xenograft tumors; oral gavage
  animal survival (Kaplan Meier; humane endpoint tumor size>1000 mm^3): had to be sacrificed at the humane endpoint
HCT116 xenograft tumors; oral gavage once daily, 5 days a week
  tumor growth: Tumors continued to grow
